Experimental findings from publication PMC10708539, “Two Antimicrobial Peptides Derived from Bacillus and Their Properties” (Molecules, 2023) are described below.

Ends that are not written are not given here.

For data set [1], the system named is St. aureus ACCC 10499. In kind it is cell-based, Staphylococcus aureus. How it is done:
(§1) The minimum inhibitory concentrations (MICs) of purified antimicrobial peptides against St. aureus ACCC 10499, B. cereus ACCC 04315, and Sa. enterica ACCC 01996 were determined by the double dilution method. The indicator bacteria cultures were diluted to an OD600 of 0.5 respectively, of which 50 μL of them were added into the sterile 96-well plate, and then 50 μL antimicrobial peptide samples with different concentrations were mixed with each indicator bacterium at a 1:1 ratio. The experiment was performed in three parallel sets. After incubation at 37 °C for 12–18 h, the OD600 value was determined by an Automatic growth curve analyzer (Bioscreen C, Turku, Finland), and the minimum concentration of 100% inhibition of indicator bacteria growth was used as the minimum inhibitory concentration.

For data set [2], the system named is trypsin. As to the kind of experiment: Protease stability of antimicrobial peptides. Particulars: mixed 1:1 with 1 mg/mL trypsin, water bath 37 °C 1 h, then boiling water bath 5 min; control without protease; read-out inhibition circles against St. aureus ACCC 10499. In kind it is in vitro ADME. The method, then: (§2) Appropriate amounts of purified antimicrobial peptide samples were placed in a water bath at 40 °C, 60 °C, 80 °C, 90 °C, and 100 °C for 30 min and high-temperature autoclave sterilization at 121 °C for 15 min respectively, to carry out temperature sensitivity tests. St. aureus ACCC 10499 was used as an indicator bacterium, and untreated samples were used as controls, with three parallel groups for each sample to observe the change in antibacterial activity. Similarly, the pH of the same amount for the antimicrobial peptide samples was adjusted to 2~10 in intervals of 1, and the neutral pH was 7.0 as the control. The samples with a different pH were kept in a water bath at 37 °C for 30 min. St. aureus ACCC 10499 was used as an indicator bacterium to detect the resistance of the antimicrobial peptide to an acid and base. In addition, appropriate antimicrobial peptide samples were mixed with 1 mg/mL solution of protease K, trypsin, and pepsin at 1:1, and were kept in a water bath at 37 °C for 1 h, followed by a boiling water bath for 5 min to inactivate the enzymes. The samples without protease treatment were used as controls and the changes in antibacterial activity were observed.

Data set [3] concerns pepsin. As to the kind of experiment: Protease stability of antimicrobial peptides. As to conditions: mixed 1:1 with 1 mg/mL pepsin, water bath 37 °C 1 h, then boiling water bath 5 min; control without protease; read-out inhibition circles against St. aureus ACCC 10499. In kind it is in vitro ADME. The method, then: as §2
For data set [4], the target named is protease K (Parengyodontium album, UniProt P06873). The data set can be described thus: Protease stability of antimicrobial peptides. Particulars: mixed 1:1 with 1 mg/mL protease K, water bath 37 °C 1 h, then boiling water bath 5 min; control without protease; read-out inhibition circles against St. aureus ACCC 10499. The data set is classed as in vitro ADME. How it is done: as §2

The subject of data set [5] is B. cereus ACCC 04315. The data set is classed as cell-based, Bacillus cereus. How it is done: as §1
Data set [6] deals with Sa. enterica ACCC 01996. The data set can be described thus: MIC by double dilution method. Particulars: 96-well plate, culture OD600 0.5 mixed 1:1 with peptide, 37 °C 12–18 h, OD600 read-out, minimum concentration of 100% growth inhibition, three parallel sets. In kind it is cell-based, Salmonella enterica. The method, then: as §1

Sequence of protease K (P06873 106-384): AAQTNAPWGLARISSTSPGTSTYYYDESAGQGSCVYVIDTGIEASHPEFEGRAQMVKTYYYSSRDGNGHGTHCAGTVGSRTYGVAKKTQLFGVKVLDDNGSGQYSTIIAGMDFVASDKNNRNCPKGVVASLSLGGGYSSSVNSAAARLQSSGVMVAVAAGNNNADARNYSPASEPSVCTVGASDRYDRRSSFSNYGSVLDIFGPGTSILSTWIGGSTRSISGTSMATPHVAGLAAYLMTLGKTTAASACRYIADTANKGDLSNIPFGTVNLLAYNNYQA

The term MIC denotes the lowest concentration that inhibits growth of the organism. For the sequence FSGSGSGTAFTLR [Peptide-II], the MIC in data set [1] worked out at 16 µg/mL; in data set [5], 64 µg/mL; in data set [6], 16 µg/mL; in data set [6] (listed as peptide-II), 8 µg/mL. The “Antibacterial activity after treatment with trypsin” value in data set [2] is given as “no significant effect”. In addition, the “Antibacterial activity after treatment with pepsin” value in data set [3] is given as “no significant effect”. Also, the “Antibacterial activity after treatment with protease K” value in data set [4] is reported as “significantly reduced”.
For VFLENVLR [Peptide-I], the results for the MIC in data set [1], in data set [5] and in data set [6] were 64 µg/mL, 32 µg/mL and 8 µg/mL, respectively. In data set [2], the “Antibacterial activity after treatment with trypsin” value was “insensitive”. Further, in data set [3], the “Antibacterial activity after treatment with pepsin” value is reported as “insensitive”. Further, the “Antibacterial activity after treatment with protease K” value in data set [4] was “insensitive”.
